Measured values reported in patent US20040127518A1, “Modulation of anxiety through blockade of anandamide hydrolysis” (priority 2002, published 2004).
Entries after “also recorded” stand apart in the source; their conditions may differ. Where two headings read alike, the source gives them in different places.

Assays:
[1] = test system: rat cortical neurons; assay: Transport, accumulation and release of non-metabolized [3H]anandamide in cortical neurons; format: cell-based; settings: for accumulation of non-metabolized [3H]anandamide in neurons: 4-min incubation, UCM532 3 μM, UCM597 10 nM
[2] = target: electric eel acetylcholinesterase (Electrophorus electricus, UniProt O42275); settings: for IC50: read-out: Cholinesterase IC50, Table 3, acetylcholinesterase
From the text: (§4) We prepared cell fractions from rat brain homogenates, and assayed membrane FAAH activity and cytosol MGL activity using anandamide [ethanolamine-3H] (American Radiolabeled Chemicals, ARC (St. Louis Mo.), 60 Ci/mmol) and 2-mono-oleoyl-glycerol-[glycerol-1,2,3^−3H] (ARC, St. Louis Mo., 20 Ci/mmol), respectively, as substrates (Dinh, T. Proc. Natl. Acad. Sci. U.S.A. (2002)). We conducted [^3H]anandamide transport assays in human astrocytoma cells (Piomelli, D. et al., Proc. Natl. Acad. Sci. U.S.A., 96, 5802-5807 (1999)); CB1 and CB2 binding assays in rat cerebellar membranes and CB2-overexpressing Chinese hamster ovary cells (Receptor Biology-Perkin Elmer, Wellesley, Mass.), respectively, using [^3H]WIN-55212-2 (NEN-Dupont, Boston, Mass., 40-60 Ci/mmol) as a ligand (Devane, W. A. et al. Science, 258, 1946-1949 (1992)); cholinesterase assays with a commercial kit (Sigma, St. Louis, Mo.), using purified enzymes (electric eel acetylcholinesterase type V-S and horse serum cholinesterase; both from Sigma, St. Louis, Mo.) and following manufacturer's instructions.

[3] = target: T1, FAAH (Rattus norvegicus, UniProt P97612); assay: biochemical; format: biochemical; set-up: from tissue; host or cells: rat brain (membrane fraction of homogenate; Wistar rats)
T1 sequence (P97612 1-579): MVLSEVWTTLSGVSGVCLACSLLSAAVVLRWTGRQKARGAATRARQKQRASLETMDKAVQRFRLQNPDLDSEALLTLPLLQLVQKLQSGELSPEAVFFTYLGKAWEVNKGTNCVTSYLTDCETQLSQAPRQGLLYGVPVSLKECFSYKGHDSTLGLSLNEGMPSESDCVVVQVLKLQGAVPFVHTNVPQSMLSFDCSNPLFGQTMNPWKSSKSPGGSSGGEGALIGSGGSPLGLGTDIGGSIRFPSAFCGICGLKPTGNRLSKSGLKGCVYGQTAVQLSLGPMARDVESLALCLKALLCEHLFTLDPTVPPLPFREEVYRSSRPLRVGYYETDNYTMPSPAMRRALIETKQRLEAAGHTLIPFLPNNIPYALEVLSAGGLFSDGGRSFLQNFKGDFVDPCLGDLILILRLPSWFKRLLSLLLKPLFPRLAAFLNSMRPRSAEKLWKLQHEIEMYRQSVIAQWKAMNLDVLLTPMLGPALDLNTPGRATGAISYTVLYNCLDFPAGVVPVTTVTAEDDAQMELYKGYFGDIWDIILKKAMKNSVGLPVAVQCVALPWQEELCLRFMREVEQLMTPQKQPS

[4] = test system: brain content of anandamide, other fatty acid ethanolamides and 2-AG; assay: Brain levels of fatty acid ethanolamides and 2-AG by HPLC/MS; format: in vivo, rat; settings: 0.3 mg kg-1 i.p., 2 h after injection
From the text: We extracted lipids from tissues with a methanol-chloroform mixture and fractionated them by silica gel column chromatography (Giuffrida, A. et al., Anal. Biochem., 280, 87-93 (2000)). Anandamide and other fatty acid derivatives were quantified by HPLC/MS, using an isotope dilution method (Giuffrida, A. et al., Anal. Biochem., 280, 87-93 (2000)).

[5] = Body temperature (rectal probe); format: in vivo
From the text: (§1) We dissolved all compounds in saline/Tween 80/polyethylenglycol (90/5/5) and administered them by i.p. injection immediately before tests. We measured body temperature with a rectal probe (Type T, Copper-Costantan Thermocouple-Physitemp Instruments INC, Clifton, N.J.) connected to a digital thermometer (model BAT-12 Physitemp Instruments INC, Clifton, N.J.); and catalepsy using the procedure described in Tseng and Craft (Tseng, A. H. et al., Eur. J. Pharmacol., 430, 41-47 (2001)).

[6] = Catalepsy; format: in vivo; settings: UCM532 10 mg kg-1 i.p.; UCM597 0.3 mg kg-1 i.p.; data not shown
From the text: as §1

[7] = Food intake in free-feeding rats; format: in vivo, rat; settings: UCM532 10 mg kg-1 i.p.; UCM597 0.3 mg kg-1 i.p.; data not shown
Description: We recorded food intake in free-feeding rats by using an automated system (Scipro Inc., New York). Rats were acclimated to the test cages for three days prior to the tests. Each test began at the onset of the dark phase and lasted for 24 hours.

[8] = Mouse hot-plate test; format: in vivo; settings: 0.5 mg kg-1 i.p., 60 min before test
Description: (§2) We dissolved FAAH inhibitors in polyethyleneglycol/water (1/1) and rimonabant in saline. Formalin and hot-plate assays were carried out in the mouse, as described (Beltramo, M. et al., FEBS Lett., 403, 263-267 (1997)).
(§3) The compounds exerted, however, moderate antinociceptive effects in two models of acute pain.

[9] = Mouse formalin test; format: in vivo; settings: 0.5 mg kg-1 i.p.
Description: as §2, §3

[10] = Elevated zero maze test; format: in vivo, rat; settings: adult rats; i.p. 30 min before test; UCM532 5 and 10 mg kg-1; UCM597 0.05-0.1 mg kg-1
Description: We dissolved FAAH inhibitors and rimonabant in dimethylsulfoxide (DMSO)/saline (7/3 and 9/1, respectively); we administered FAAH inhibitors by i.p. injection 30 min before tests and rimonabant 30 min before UCM532. The elevated zero maze was comprised of a black Perspex annular platform (105 cm diameter, 10 cm width) elevated to 65 cm above ground level, divided equally into four quadrants (Bickerdike, M. J. et al., Eur. J. Pharmacol., 271, 403-411 (1994); Shepherd, J. K. et al., Psychopharmacology, 116, 56-64 (1994)). […] We placed the rats in a closed quadrant and video recorded them for 5-min periods, thoroughly cleaning the maze between sessions. […] Results are expressed as percent time in open quadrant/total time (percent time open). Results were analyzed by one-way ANOVA followed by Tukey's test. We recorded motor activity of each rat in an Opto-Varimex cage (Columbus Instruments, Columbus, Ohio) linked on-line to a computer and placed in a sound-attenuated room illuminated by a 20-W white light. The amount of time spent in ambulatory activity was analyzed using an Auto-Track software (Columbus Instruments, Columbus, Ohio) as described elsewhere (Ali, M. M. et al., Neurosci. Lett., 284, 57-60 (2000); Wedzony, K. et al., Neuropsychopharmacology, 23, 547-559 (2000)). […] We analyzed data by overall one-way ANOVA followed by Tukey's test for individual between-group comparisons. […]

[11] = target: horse plasma butyryl cholinesterase (Equus caballus, UniProt P81908); assay: Cholinesterase assay with commercial kit, purified enzyme
From the text: as §4

[12] = target: T2, rat brain monoglyceride lipase (MGL) (Rattus norvegicus, UniProt Q8R431); assay: Cytosol MGL activity, 2-mono-oleoyl-glycerol as substrate
T2 sequence (Q8R431 1-303): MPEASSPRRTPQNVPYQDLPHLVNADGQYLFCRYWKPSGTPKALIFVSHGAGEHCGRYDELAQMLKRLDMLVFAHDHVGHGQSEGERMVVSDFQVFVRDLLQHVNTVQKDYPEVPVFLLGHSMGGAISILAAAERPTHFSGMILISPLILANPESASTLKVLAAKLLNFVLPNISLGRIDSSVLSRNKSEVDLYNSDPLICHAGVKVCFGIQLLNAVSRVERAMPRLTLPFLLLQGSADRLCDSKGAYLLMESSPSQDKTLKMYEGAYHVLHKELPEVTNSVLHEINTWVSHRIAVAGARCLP
From the text: as §4

[13] = test system: anandamide transport; assay: [3H]anandamide transport assay in human astrocytoma cells; settings: human astrocytoma cells
From the text: as §4

[14] = target: CB2 receptor (Homo sapiens, UniProt P34972); assay: CB2 binding assay in CB2-overexpressing Chinese hamster ovary cells, [3H]WIN-55212-2
From the text: as §4

[15] = Table 3, read-out: Amidohydrolase IC50
[16] = Table 4, FAAH IC50, read-out: Inhibition of Amidohydrolase IC50

electric eel acetylcholinesterase, sequence (O42275 whole entry): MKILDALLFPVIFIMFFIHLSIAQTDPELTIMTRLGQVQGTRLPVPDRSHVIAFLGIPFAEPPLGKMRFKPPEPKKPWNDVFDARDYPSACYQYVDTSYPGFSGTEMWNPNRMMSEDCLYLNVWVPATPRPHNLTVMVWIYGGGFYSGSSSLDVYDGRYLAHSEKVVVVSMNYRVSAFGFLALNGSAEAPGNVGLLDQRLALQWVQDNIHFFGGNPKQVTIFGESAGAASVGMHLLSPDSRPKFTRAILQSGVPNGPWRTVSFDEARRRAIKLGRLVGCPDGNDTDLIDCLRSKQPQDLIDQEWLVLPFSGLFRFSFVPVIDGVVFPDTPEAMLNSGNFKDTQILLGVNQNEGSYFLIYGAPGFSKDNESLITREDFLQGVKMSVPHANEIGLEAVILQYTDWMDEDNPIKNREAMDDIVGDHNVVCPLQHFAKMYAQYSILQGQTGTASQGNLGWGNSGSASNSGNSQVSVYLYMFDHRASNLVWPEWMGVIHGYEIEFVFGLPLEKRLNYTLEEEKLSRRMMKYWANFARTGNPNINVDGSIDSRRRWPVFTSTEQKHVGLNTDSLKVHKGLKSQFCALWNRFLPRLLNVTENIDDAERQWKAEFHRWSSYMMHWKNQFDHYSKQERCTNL
CB2 receptor, sequence (P34972 whole entry): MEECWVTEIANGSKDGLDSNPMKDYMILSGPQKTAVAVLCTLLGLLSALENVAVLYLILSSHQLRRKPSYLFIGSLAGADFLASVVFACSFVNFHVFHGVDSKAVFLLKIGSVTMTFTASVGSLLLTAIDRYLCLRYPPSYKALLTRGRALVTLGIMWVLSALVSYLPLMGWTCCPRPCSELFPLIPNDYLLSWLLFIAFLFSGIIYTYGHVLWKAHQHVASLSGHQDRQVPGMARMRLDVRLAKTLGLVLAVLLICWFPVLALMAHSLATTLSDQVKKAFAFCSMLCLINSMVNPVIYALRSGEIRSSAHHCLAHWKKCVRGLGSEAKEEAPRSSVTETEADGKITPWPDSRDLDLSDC
horse plasma butyryl cholinesterase, sequence (P81908 whole entry): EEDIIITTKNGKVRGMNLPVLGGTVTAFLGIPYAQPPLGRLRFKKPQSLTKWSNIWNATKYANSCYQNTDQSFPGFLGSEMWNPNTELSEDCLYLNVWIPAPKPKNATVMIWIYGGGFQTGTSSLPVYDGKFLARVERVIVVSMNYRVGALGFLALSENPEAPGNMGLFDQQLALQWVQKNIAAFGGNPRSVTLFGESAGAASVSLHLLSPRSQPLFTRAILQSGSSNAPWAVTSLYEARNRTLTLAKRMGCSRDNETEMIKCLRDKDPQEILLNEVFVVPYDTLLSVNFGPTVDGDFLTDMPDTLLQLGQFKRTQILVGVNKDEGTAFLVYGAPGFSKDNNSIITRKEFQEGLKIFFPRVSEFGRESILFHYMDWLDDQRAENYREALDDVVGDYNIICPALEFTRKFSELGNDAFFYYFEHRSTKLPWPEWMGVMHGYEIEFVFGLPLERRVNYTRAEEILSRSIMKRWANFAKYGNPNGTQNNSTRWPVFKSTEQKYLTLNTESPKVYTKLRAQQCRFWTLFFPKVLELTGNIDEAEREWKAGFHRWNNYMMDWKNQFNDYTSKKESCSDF

CCCCC/C=C\C/C=C\C/C=C\C/C=C\CCCC(=O)Nc1ccc(O)cc1 [AM404, N-(4-hydroxyphenyl)arachidonamide, reference compound]
accumulation of non-metabolized [3H]anandamide in neurons ([1]; AM404 10 μM): significantly reducing; also recorded: reduces | effect on [3H]anandamide release from UCM597-treated neurons ([1]; AM404 10 μM, 15-min incubation): not inhibited

hexyl-N-cyclohexyl carbamate [PL#9]
IC50 [2]: > 30 µM | IC50 [3, 15]: 3700 nM | IC50 [3, 16]: 3700 nM

4-fluoraphenyl N-butylcarbamate [PL#12]
IC50 [2]: > 30 µM | IC50 [3, 15]: 11500 nM | IC50 [3, 16]: 11500 nM

2.3-dihyrdo-2.2-dimethyl-7-benzogumaol N-methylcarbamate [PL#15, reference compound]
IC50 [2]: 0.56 µM | IC50 [3, 15]: > 30000 nM | IC50 [3, 16]: > 30000 nM

NC(=O)c1cccc(-c2cccc(OC(=O)NC3CCCCC3)c2)c1 [UCM597, cyclohexylcarbamic acid 3′-carbamoylbiphenyl-3-yl ester]
accumulation of non-metabolized [3H]anandamide in neurons ([1]; AM404 10 μM): promote accumulation | accumulated [3H]anandamide released back into the medium ([1]; UCM597-treated (10 nM) neurons, 15 min in [3H]anandamide-free solution, n=3): 42.6±8.7% | carrier-mediated uptake of [3H]anandamide ([1]; rat cortical neurons): without reducing | brain content of 2-AG [4]: did not change | brain content of anandamide [4]: significant elevations | brain content of oleoylethanolamide ([4]; n=8-15): 725.3 ± 28.6 pmol g^−1 of tissue | brain content of palmitoylethanolamide ([4]; n=8-15): 1324±395 pmol g^−1 of tissue | body temperature / hypothermia, compound alone ([5]; UCM532 10 mg kg-1 i.p., UCM597 0.3 mg kg-1 i.p.): no effect and no | decrease in body temperature elicited by anandamide ([5]; UCM597 0.3 mg kg-1 i.p. 30 min before anandamide 5 mg kg-1 i.p.): intensified and prolonged | catalepsy (rigid immobility) [6]: no catalepsy | hyperphagia (increased food intake) [7]: no | response latencies, hot-plate test [8]: significantly lengthened | early phase of formalin-evoked pain behavior [9]: attenuated | late phase of formalin-evoked pain behavior [9]: little or no change | percent time open, elevated zero maze [10]: anxiolytic-like responses | effect on acetylcholinesterase activity (in words) [2]: did not affect | effect on butyryl cholinesterase activity (in words) [11]: did not affect | effect on MGL activity (in words) [12]: did not affect | effect on anandamide transport (in words) [13]: no effect | effect on binding of a high-affinity ligand to CB2 (in words) [14]: no effect

CNC(=O)Oc1cccc2ccccc12 [PL#18, carbaryl, reference compound]
IC50 [2]: 3.1 µM | inhibition of FAAH activity (in words) [3]: ineffective | IC50 ([3]; IC50(nM)): > 100000 nM
